The source of these data is PMC8713471, “Insights Into the Inhibition of MOX-1 β-Lactamase by S02030, a Boronic Acid Transition State Inhibitor” (Frontiers in Microbiology, 2021).

Experiment [1] has as its target T1, MOX-1 β-lactamase (Klebsiella pneumoniae, UniProt Q51578). Description: Inhibition of cephalothin hydrolysis by purified MOX-1, […] min pre-incubation, UV/VIS (Ki and IC50). The arrangement: gene blaMOX-1; purified MOX-1, (His)8 tag removed with thrombin. It counts as biochemical.
For experiment [2], the target named is T1, MOX-1 β-lactamase. In words: X-ray crystal structure at […] Å; also Ki and IC50 with purified enzyme (cephalothin hydrolysis). On the set-up: gene blaMOX-1; N-terminal (His)8-tagged MOX-1 for crystals (model Asp6-Arg305 and Gln310-Gly362); tag removed with thrombin for kinetics. Type of experiment: biochemical.

The structures appear in SMILES notation.

T1 sequence (Q51578 entry or part of it): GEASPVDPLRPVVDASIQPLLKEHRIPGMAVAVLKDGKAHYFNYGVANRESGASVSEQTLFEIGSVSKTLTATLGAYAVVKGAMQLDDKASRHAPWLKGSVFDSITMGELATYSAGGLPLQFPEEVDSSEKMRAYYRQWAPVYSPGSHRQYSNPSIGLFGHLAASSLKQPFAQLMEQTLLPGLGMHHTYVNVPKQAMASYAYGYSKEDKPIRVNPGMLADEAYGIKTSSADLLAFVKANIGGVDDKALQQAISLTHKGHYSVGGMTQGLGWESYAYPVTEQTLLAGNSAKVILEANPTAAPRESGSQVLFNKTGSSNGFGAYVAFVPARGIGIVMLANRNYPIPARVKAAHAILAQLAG

In turn, `C[C@H]1[C@H](NC(=O)/C(=N\OC(C)(C)C(=O)O)c2csc(N)n2)C(=O)N1S(=O)(=O)O` [Aztreonam] returned a Ki in experiment [1] of 10 ± 1 nM.
As for `O=C(Cc1cccs1)N[C@@H](Cn1cc(C(=O)O)nn1)B(O)O` [S02030], the Ki in experiment [2] came to 560 ± 30 nM.
